Test results from patent US11008355B2, “Crystal of 3'-sialyllactose sodium salt n-hydrate, and process for producing same” (KYOWA HAKKO BIO CO., LTD., priority 2016, dated 2021).
Like-named read-outs stand apart in the source and are kept apart here.

Legend:
[1] = 50° C., relative humidity of 50%, HPLC, wt %
Protocol: Storage conditions: 50° C., relative humidity of 50% (adjusted with saturated sodium bromide solution)
Measurement method: About 5 g of a sample was weighed with a precision balance, the sample was packed in a glass container, and the amount of impurities (glucose, lactose, sialic acid) after heating was evaluated by HPLC (“%” in Table 5 represents “wt %”).

[2] = pH of aqueous solution of the crystal; type: physicochemical; settings: aqueous solution at 50 g/L as a crystal of 3SL sodium salt 8.0-hydrate
Protocol: As for the pH, an aqueous solution at 50 g/L as a crystal of 3SL sodium salt 8.0-hydrate was measured. The melting point was measured using Melting Point M-565 (manufactured by BUCHI Corporation) under a condition of 50° C. to 200° C. and 0.5° C./min according to the instruction book.

[3] = 30° C., relative humidity of 80%; for Change in weight with lapse of time (in words): up to 8 hours
Protocol: Storage conditions: 30° C., relative humidity of 80% (apparatus: THE051FA, manufactured by Advantec Toyo Kaisha Ltd.)
Measurement method: After about 100 mg of a sample was weighed with a precision balance, the sample was packed in a glass container and stored under the above-mentioned conditions. Thereafter, the sample was weighed again, and the weight change ratio was calculated.
Incidentally, the weight of the sample at each elapsed time was measured by assuming the weight of each sample at the start of the test to be 100%.

Glucose (impurity amount) ([1]; elapsed days 0) [%]	Lactose (impurity amount) ([1]; elapsed days 0) [%]	Sialic acid (impurity amount) ([1]; elapsed days 0) [%]	Glucose (impurity amount) ([1]; elapsed days 2) [%]	Lactose (impurity amount) ([1]; elapsed days 2) [%]	Sialic acid (impurity amount) ([1]; elapsed days 2) [%]	Glucose (impurity amount) ([1]; elapsed days 4) [%]	Lactose (impurity amount) ([1]; elapsed days 4) [%]	Sialic acid (impurity amount) ([1]; elapsed days 4) [%]	pH [2]	Change in weight with lapse of time (in words) [3]	Weight of sample (weight at start of test = 100%) ([3]; elapsed time 0 hours) [%]	Weight of sample (weight at start of test = 100%) ([3]; elapsed time 0.5 hours) [%]	Weight of sample (weight at start of test = 100%) ([3]; elapsed time 2.5 hours) [%]	Weight of sample (weight at start of test = 100%) ([3]; elapsed time 8 hours) [%]	SMILES
0.03	0.01	0.08	0.04	0.01	0.10	0.04	0.02	0.09	6.00	almost no change in weight	100.0	100.2	99.9	99.9	CC(=O)NC1C(O)CC(OC2C(O)C(CO)OC(OC3C(CO)OC(O)C(O)C3O)C2O)(C(=O)[O-])OC1C(O)C(O)CO.O.O.O.O.O.O.O.O.[Na+] (centres unmarked) [Example 2, 3SL sodium salt 8.0-hydrate]
0.11	0.02	0.14	0.14	0.03	0.21	0.16	0.07	0.26	–	–	–	–	–	–	CC(=O)N[C@H]1[C@H]([C@H](O)[C@H](O)CO)O[C@@](O[C@H]2[C@@H](O)[C@@H](CO)O[C@@H](O[C@H]3[C@H](O)[C@@H](O)C(O)O[C@@H]3CO)[C@@H]2O)(C(=O)[O-])C[C@@H]1O.[Na+] (some centres unmarked) [Freeze-dried product, amorphous 3SL sodium, reference compound]
–	–	–	–	–	–	–	–	–	–	increase in weight	100.0	123.1	130.5	130.4	CC(=O)N[C@H]1[C@H]([C@H](O)[C@H](O)CO)O[C@@](O[C@H]2[C@@H](O)[C@@H](CO)O[C@@H](O[C@H]3[C@H](O)[C@@H](O)C(O)O[C@@H]3CO)[C@@H]2O)(C(=O)[O-])C[C@@H]1O.[Na+] (some centres unmarked) [amorphous, 3SL sodium reagent, reference compound]
